Results published in US12077503B2, “Substituted cyclic amides and their use as herbicides” (FMC CORPORATION, priority 2015, dated 2024).
Like-named read-outs stand apart in the source and are kept apart here.

Tests used:
Assay type in all cases: in vivo
[1] = system: sedge, umbrella (small-flower umbrella sedge, Cyperus difformis); test: Test B flooded paddy test; settings: Cyperus difformis, 250 g ai/ha, Flood, read-out: Sedge, Umbrella plant response rating
How it was run: (§1)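 Percent control, visually estimated after 13–15 d in the greenhouse on a 0–100 basis, compares treated pots with untreated ones; compound was put into paddy water 3 cm above the soil when plants had two leaves.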

[2] = system: ducksalad (Heteranthera limosa); test: Test B flooded paddy test; settings: Heteranthera limosa, Flood, 250 g ai/ha; scale of 0 to 100 where 0 is no effect and 100 is complete control; read-out: Ducksalad plant response rating
How it was run: as §1

[3] = system: barnyardgrass (Echinochloa crus-galli); test: Test B flooded paddy test; settings: Echinochloa crus-galli, Flood, 250 g ai/ha; scale of 0 to 100 where 0 is no effect and 100 is complete control; read-out: Barnyardgrass plant response rating
How it was run: as §1

[4] = system: rice (Oryra sativa); test: Test B flooded paddy test; settings: Oryza sativa, Flood, 250 g ai/ha; scale of 0 to 100 where 0 is no effect and 100 is complete control; read-out: Rice plant response rating
How it was run: as §1

[5] = system: pigweed (Amaranthus retroflexus); test: Test A postemergence; settings: Amaranthus retroflexus, post-emergence, 240 h, 125 g ai/ha, Postemergence; visual injury after approximately 10 d; 0 to 100 scale where 0 is no effect and 100 is complete control; read-out: Plant response rating, Pigweed
How it was run: (§2)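 Ratings of 0 (no effect) to 100 (complete control) come from visual comparison with untreated controls roughly 10 d after treatment. Test chemicals, formulated in a non-phytotoxic solvent mixture with surfactant, were applied either as a preemergence directed soil spray on seeded soil or postemergence to one- to two-leaf plants 2 to 10 cm tall.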

[6] = system: blackgrass (Alopecurus myosuroides); test: Test A postemergence; settings: Alopecurus myosuroides, post-emergence, 240 h, 125 g ai/ha, Postemergence; visual injury after approximately 10 d; 0 to 100 scale where 0 is no effect and 100 is complete control; read-out: Plant response rating, Blackgrass
How it was run: as §2

[7] = system: ragweed (common ragweed, Ambrosia elatior); test: Test A postemergence; settings: Ambrosia artemisiifolia, post-emergence, 240 h, 125 g ai/ha, Postemergence; visual injury after approximately 10 d; 0 to 100 scale where 0 is no effect and 100 is complete control; read-out: Plant response rating, Ragweed
How it was run: as §2

[8] = system: corn (Zea mays); test: Test A postemergence; settings: Zea mays, post-emergence, 240 h, 125 g ai/ha, Postemergence; visual injury after approximately 10 d; 0 to 100 scale where 0 is no effect and 100 is complete control
How it was run: as §2

[9] = system: Kochia (Kochia scoparia); test: Test A postemergence; settings: Bassia scoparia, post-emergence, 240 h, 125 g ai/ha, Postemergence; visual injury after approximately 10 d; 0 to 100 scale where 0 is no effect and 100 is complete control; read-out: Plant response rating, Kochia
How it was run: as §2

[10] = system: Galium (catchweed bedstraw, Galium aparine); test: Test A postemergence; settings: Galium, post-emergence, 240 h, 125 g ai/ha, Postemergence; visual injury after approximately 10 d; 0 to 100 scale where 0 is no effect and 100 is complete control; read-out: Plant response rating, Galium
How it was run: as §2

[11] = system: ryegrass, Italian (Italian ryegrass, Lolium multiflorum); test: Test A postemergence; settings: Lolium multiflorum, post-emergence, 240 h, 125 g ai/ha, Postemergence; visual injury after approximately 10 d; 0 to 100 scale where 0 is no effect and 100 is complete control; read-out: Plant response rating, Ryegrass, Italian
How it was run: as §2

[12] = system: giant foxtail (Setaria faberii); test: Test A postemergence; settings: Setaria faberi, post-emergence, 240 h, 125 g ai/ha, Postemergence; visual injury after approximately 10 d; 0 to 100 scale where 0 is no effect and 100 is complete control; read-out: Plant response rating, Foxtail, Giant
How it was run: as §2

[13] = system: barnyardgrass (Echinochloa crus-galli); test: Test A postemergence; settings: Echinochloa crus-galli, post-emergence, 240 h, 125 g ai/ha, Postemergence; visual injury after approximately 10 d; 0 to 100 scale where 0 is no effect and 100 is complete control; read-out: Plant response rating, Barnyardgrass
How it was run: as §2

[14] = system: wheat (Triticum aestivum); test: Test A postemergence; settings: Triticum aestivum, post-emergence, 240 h, 125 g ai/ha, Postemergence; visual injury after approximately 10 d; 0 to 100 scale where 0 is no effect and 100 is complete control; read-out: Plant response rating, Wheat
How it was run: as §2

[15] = system: pigweed (Amaranthus retroflexus); test: Test A preemergence; settings: Amaranthus retroflexus, pre-emergence, 240 h; for pest or weed control at 125 g/ha: 125 g ai/ha, Preemergence, visual injury rating after approximately 10 d, read-out: Pigweed plant response rating (0 to 100 scale, 0 is no effect, 100 is complete control); for pest or weed control at 500 g/ha: 500 g ai/ha, preemergence, visual injury rating about 10 d after treatment, 0 to 100 scale (0 no effect, 100 complete control), read-out: Pigweed plant response rating
[16] = system: ragweed (common ragweed, Ambrosia elatior); test: Test A preemergence; settings: Ambrosia artemisiifolia, pre-emergence, 240 h; for pest or weed control at 125 g/ha: 125 g ai/ha, Preemergence, visual injury rating after approximately 10 d, read-out: Ragweed plant response rating (0 to 100 scale, 0 is no effect, 100 is complete control); for pest or weed control at 500 g/ha: 500 g ai/ha, preemergence, visual injury rating about 10 d after treatment, 0 to 100 scale (0 no effect, 100 complete control), read-out: Ragweed plant response rating
How it was run: as §2

[17] = system: Kochia (Kochia scoparia); test: Test A preemergence; settings: Bassia scoparia, pre-emergence, 240 h; for pest or weed control at 125 g/ha: 125 g ai/ha, Preemergence, visual injury rating after approximately 10 d, read-out: Kochia plant response rating (0 to 100 scale, 0 is no effect, 100 is complete control); for pest or weed control at 500 g/ha: 500 g ai/ha, preemergence, visual injury rating about 10 d after treatment, 0 to 100 scale (0 no effect, 100 complete control), read-out: Kochia plant response rating
How it was run: as §2

[18] = system: ryegrass, Italian (Italian ryegrass, Lolium multiflorum); test: Test A preemergence; settings: Lolium multiflorum, pre-emergence, 240 h; for pest or weed control at 125 g/ha: 125 g ai/ha, Preemergence, visual injury rating after approximately 10 d, read-out: Ryegrass, Italian plant response rating (0 to 100 scale, 0 is no effect, 100 is complete control); for pest or weed control at 500 g/ha: 500 g ai/ha, preemergence, visual injury rating about 10 d after treatment, 0 to 100 scale (0 no effect, 100 complete control), read-out: Ryegrass, Italian plant response rating
How it was run: as §2

[19] = system: giant foxtail (Setaria faberii); test: Test A preemergence; settings: Setaria faberi, pre-emergence, 240 h; for pest or weed control at 125 g/ha: 125 g ai/ha, Preemergence, visual injury rating after approximately 10 d, read-out: Foxtail, Giant plant response rating (0 to 100 scale, 0 is no effect, 100 is complete control); for pest or weed control at 500 g/ha: 500 g ai/ha, preemergence, visual injury rating about 10 d after treatment, 0 to 100 scale (0 no effect, 100 complete control), read-out: Foxtail, Giant plant response rating
How it was run: as §2

[20] = system: barnyardgrass (Echinochloa crus-galli); test: Test A preemergence; settings: Echinochloa crus-galli, pre-emergence, 240 h; for pest or weed control at 125 g/ha: 125 g ai/ha, Preemergence, visual injury rating after approximately 10 d, read-out: Barnyardgrass plant response rating (0 to 100 scale, 0 is no effect, 100 is complete control); for pest or weed control at 500 g/ha: 500 g ai/ha, preemergence, visual injury rating about 10 d after treatment, 0 to 100 scale (0 no effect, 100 complete control), read-out: Barnyardgrass plant response rating
How it was run: as §2

[21] = scale of 0 to 100 where 0 is no effect and 100 is complete control

Row | SMILES | pest or weed control at 250 g/ha [2] | pest or weed control at 250 g/ha [3] | pest or weed control at 250 g/ha [4] | pest or weed control at 125 g/ha [5] | pest or weed control at 125 g/ha [6] | pest or weed control at 125 g/ha [7] | Corn plant response rating (crop injury, 0 = no effect, 100 = complete kill) at 125 g/ha [8] | pest or weed control at 125 g/ha [9] | pest or weed control at 125 g/ha [10] | pest or weed control at 125 g/ha [11] | pest or weed control at 125 g/ha [12] | pest or weed control at 125 g/ha [13] | plant injury at 125 g/ha [14] | pest or weed control at 125 g/ha [15] | pest or weed control at 500 g/ha [15] | pest or weed control at 125 g/ha [16] | pest or weed control at 500 g/ha [16] | pest or weed control at 125 g/ha [17] | pest or weed control at 500 g/ha [17] | pest or weed control at 125 g/ha [18] | further results
1 | Cc1c(F)cccc1NC(=O)[C@H]1C(=O)N(C)C[C@@H]1c1cc(F)cc(C(F)(F)F)c1 [Compound 994] | 100% | 75% | 20% | 0% | 60% | 20% | 70% | 40% | 50% | 70% | 90% | 100% | 70% | 30% | 70% | 0% | 0% | 40% | 60% | 70% | pest or weed control at 250 g/ha ([1]; 0 to 100 scale where 0 is no effect and 100 is complete control): 0%; pest or weed control at 500 g/ha [18]: 100%; pest or weed control at 125 g/ha [19]: 100%; pest or weed control at 500 g/ha [19]: 100%; pest or weed control at 125 g/ha [20]: 90%; pest or weed control at 500 g/ha [20]: 100%
2 | Cc1ccc(NC(=O)[C@H]2C(=O)N(C)C[C@@H]2c2cc(F)cc(F)c2)cc1 [Compound 967] | 35% | 0% | 0% | 0% | 0% | 0% | 0% | 0% | 0% | 0% | 80% | 80% | 0% | 0% | 0% | 0% | 0% | 0% | 0% | 0% | pest or weed control at 250 g/ha [1, 21]: 0%; pest or weed control at 500 g/ha [18]: 0%; pest or weed control at 125 g/ha [19]: 80%; pest or weed control at 500 g/ha [19]: 90%; pest or weed control at 125 g/ha [20]: 80%; pest or weed control at 500 g/ha [20]: 90%
3 | CCOc1cccc([C@H]2CN(C)C(=O)[C@@H]2C(=O)Nc2ccc(F)cc2F)c1 [Compound 963] | 90% | 65% | 0% | 0% | 0% | 0% | 0% | 20% | 30% | 20% | 90% | 90% | 0% | 0% | 30% | 0% | 0% | 40% | 70% | 20% | pest or weed control at 250 g/ha [1, 21]: 0%; pest or weed control at 500 g/ha [18]: 40%; pest or weed control at 125 g/ha [19]: 100%; pest or weed control at 500 g/ha [19]: 100%; pest or weed control at 125 g/ha [20]: 90%; pest or weed control at 500 g/ha [20]: 100%
